# Data reported in patent US12599647B2, “Peptide amide composition and preparation method therefor” (Xizang Haisco Pharmaceutical Co., Ltd., priority 2019, dated 2026).
# “And” between values parts separate entries of the source, which are not always exact repeats. Equal entries are not always repeated.
# What was measured:
# Format in all cases: physicochemical
# [1] = Related substances of formulation solutions for injection after high temperature acceleration at 40°C; conditions: compound II raw material (stored refrigerated 2°C-8°C), control, 0 days
# Protocol: The sample of Formulation 1 solution for injection was placed under the conditions of 40° C.±2° C. for 5 days; compound II raw material (stored under refrigerated conditions of 2° C.-8° C.) was used as a control; and changes of related substances in the sample were examined, with data shown in Table 3.
# Formulation 2 solution for injection was placed under the conditions of 40° C. 2° C. for 5 days; compound II raw material (stored under refrigerated conditions of 2° C.-8° C.) was used as a control; and changes of related substances in the sample were examined, with data shown in Table 4.
# Formulation 3 solution for injection was placed under the conditions of 40° C. 2° C. for 5 days; compound II raw material (stored under refrigerated conditions of 2° C.-8° C.) was used as a control; and changes of related substances in the sample were examined, with data shown in Table 5.
# Formulation 4 solution for injection was placed under the conditions of 40° C. 2° C. for 9 days; compound II raw material (stored under refrigerated conditions of 2° C.-8° C.) was used as a control; and changes of related substances in the sample were examined, with data shown in Table 6.
# Formulation 5 solution for injection was placed under the conditions of 40° C. […]
# [2] = Related substances in compound II solutions at pH range 3-5.5 (Table 2); conditions: aqueous solution, pH adjusted with glacial acetic acid; 40°C±2°C, 10 days
# Protocol: (§1) Considering the operability of industrial production, we examined the stability of solutions at a pH range of 3-5.5. 750 ml of water for injection was measured and taken; nitrogen was charged beneath the surface of the liquid for about 20 min; and the water temperature was controlled to be 50° C. or less. 37.5 mg of compound II was weighed, added to the above-mentioned water for injection and stirred to dissolution and clarification to obtain solution (1). Solution (1) was adjusted with glacial acetic acid (source: Chengdu Kelong Chemical Co., Ltd.) to different pH values, and aqueous solutions containing compound II at different pH values were obtained. The aqueous solutions were placed under the conditions of 40° C.±2° C. for 10 days, and the performance of related substances in the solutions at different pH values was examined, with data shown in Table 2.
# [3] = Related substances in compound II solutions at different pH values (Table 1); conditions: aqueous solutions, pH adjusted with glacial acetic acid or tartaric acid; 40°C±2°C, 10 days
# Protocol: as §1, with “750” for “Considering the operability of industrial production, we examined the stability of solutions at a pH range of 3-5.5. 750”, “Ltd.) and tartaric acid” for “Ltd.)”, “values, respectively,” for “values,”, “examined (including the solution at a pH value not being adjusted),” for “examined,”, “1.” for “2.”
smiles,measurement,setting,value
CC(=O)N1CC2(CCN(C(=O)[C@@H](CCCCN)NC(=O)[C@@H](CC(C)C)NC(=O)[C@@H](Cc3ccccc3)NC(=O)[C@H](N)Cc3ccccc3)CC2)C1 [Compound II],Total impurity (%),[1],1.098% and 1.238%
same,pH range at which the product is stable,[2],3-5.5
same,pH value of best stability,[3],about 4
